Assay results published in the supplement of paper PMC10307832.

Assays:
Assay in all cases: relative viability (nuclei count vs DMSO), 5 days (fraction); higher = more cells survive
[1] = compound: CN(C)CC1=CC(=CC=C1)N=C(C2=CC=CC=C2)C3=C(NC4=C3C=CC(=C4)C(=O)N(C)C)O + Cc1cc(Nc2cc(N3CCN(C)CC3)nc(Sc3ccc(NC(=O)C4CC4)cc3)n2)n[nH]1 [Tozasertib] (partner 0.1 µM)
Outline: (§1)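 Nuclei were stained with Hoechst during a one-step fixation (final 0.05% Triton X-100, 1% formaldehyde, 1 ug/ml Hoechst) carried out 5 days after dosing, then counted on 4× images. The cells, lung cancer lines in 1536-well plates, had been dosed by pin tool the day after seeding with one drug alone or a fixed anchor-drug dose plus five library-drug doses (not always all listed) in √10 steps. Relative viability is the nuclei count in treated wells divided by that in vehicle wells, and each value is the median of duplicate plates.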

[2] = compound: CN(C)CC1=CC(=CC=C1)N=C(C2=CC=CC=C2)C3=C(NC4=C3C=CC(=C4)C(=O)N(C)C)O + NC(=O)Nc1cc(-c2cccc(F)c2)sc1C(=O)N[C@H]1CCCNC1 [AZD7762] (partner 0.2 µM)
Outline: as §1

[3] = compound: CN(C)CC1=CC(=CC=C1)N=C(C2=CC=CC=C2)C3=C(NC4=C3C=CC(=C4)C(=O)N(C)C)O + Nc1ncn([C@H]2C[C@H](O)[C@@H](CO)O2)c(=O)n1 [Decitabine] (partner 2 µM)
Outline: as §1

[4] = compound: CN(C)CC1=CC(=CC=C1)N=C(C2=CC=CC=C2)C3=C(NC4=C3C=CC(=C4)C(=O)N(C)C)O + CC(C)C[C@H](NC(=O)[C@H](Cc1ccccc1)NC(=O)c1cnccn1)B(O)O [Bortezomib] (partner 0.002 µM)
Outline: as §1

Cell Line	relative viability ([1]; first compound 0.08 µM)	relative viability ([1]; first compound 0.253 µM)	relative viability ([1]; first compound 0.8 µM)	relative viability ([1]; first compound 2.53 µM)	relative viability ([1]; first compound 8 µM)	relative viability ([2]; first compound 0.08 µM)	relative viability ([2]; first compound 0.253 µM)	relative viability ([2]; first compound 0.8 µM)	relative viability ([2]; first compound 2.53 µM)	relative viability ([2]; first compound 8 µM)	relative viability ([3]; first compound 0.08 µM)	relative viability ([3]; first compound 0.253 µM)	relative viability ([3]; first compound 0.8 µM)	relative viability ([3]; first compound 2.53 µM)	relative viability ([3]; first compound 8 µM)	relative viability ([4]; first compound 0.253 µM)	relative viability ([4]; first compound 0.8 µM)	relative viability ([4]; first compound 8 µM)	relative viability ([4]; first compound 0.08 µM)	relative viability ([4]; first compound 2.53 µM)
NCI-H1944	0.25	0.251	0.222	0.262	0.214	0.56	0.576	0.419	0.525	0.434	0.449	0.428	0.382	0.461	0.489					
CAL-12T	0.375	0.342	0.311	0.308	0.292	0.627	0.668	0.58	0.647	0.687						1.02	1.03	1.08		
NCI-H661	0.374	0.345	0.355	0.319	0.367						0.537	0.55	0.477	0.554	0.584	0.707	0.918	0.607	0.897	0.873
COR-L23	0.185	0.226	0.201	0.205	0.154						0.442	0.422	0.433	0.429	0.401	1.06	0.991	0.904	0.99	0.958
NCI-H520	0.45	0.373	0.425	0.454	0.386						0.489	0.528	0.481	0.5	0.511	0.455	0.651	0.552	0.593	0.658
UMC-11	0.202	0.192	0.216	0.183	0.216						0.724	0.633	0.693	0.546	0.611	0.645	0.725	0.698	0.744	0.577
NCI-H1648	0.419		0.572	0.383	0.396	0.638	0.706		0.718	0.606	0.418	0.568		0.538	0.544					
NCI-H1792						0.639	0.658	0.643	0.506	0.71	0.506	0.594	0.585	0.484	0.602	0.911	0.906	0.911	0.641	0.933
SW 900	0.669	0.58	0.519	0.562	0.552	0.664	0.581	0.55	0.649	0.685	0.385	0.48	0.43	0.409	0.472					
IA-LM																0.876	1.12	1.11		1.06
NCI-H2023	0.333	0.342	0.291	0.307	0.343						0.258	0.216	0.221	0.195	0.232	1.05	0.901	0.731	1.3	0.647
